# Laboratory results as given in patent publication US20240238232A1, “COMPOSITIONS AND METHODS FOR THE REDUCTION OR TREATMENT OF INSULIN RESISTANCE AND METABOLIC CONDITIONS” (AXCELLA HEALTH INC., priority 2018, published 2024).
# System: Human CCL2 (MCP-1)
# Experiment: MCP1/CCL2 secretion in primary human hepatocytes (FFA + TNFα, ELISA after 24 h)
# Type: cell-based
# Conditions: for MCP1 expression relative to Control, Mean: baseline subtracted; for MCP1/CCL2 secretion: primary human hepatocytes from two healthy donors, FFA + TNFα, 24 h
# Procedure: Hepatocyte lipotoxicity appears to be a central driver of hepatic cellular injury via oxidative stress and endoplasmic reticulum (ER) stress. The ability of amino acids to influence steatosis (lipid accumulation) and inflammation in hepatocytes was assessed using human primary hepatocytes (Lonza, TRL).
# Primary hepatocytes lot nos. from two healthy human donors were seeded on day 0 at density of 6e04 cells in 96 well optical microplates (Thermofisher) in hepatocyte plating media (William's E medium (Gibco) supplemented with 10% heat-inactivated FBS (Atlanta Bio), 2 mM Glutamax (Gibco), and 0.2% Primocin (InVivoGen) and incubated for 6 hours at 37° C., 5% CO2. After 6 hours, cells were washed twice and incubated overnight at 37° C., 5% CO2 with Hepatocytes defined medium (Corning) supplemented with 2 mM Glutamax (Gibco), and 1×Penicillin/Streptomycin. On day 1, cells were washed twice and incubated for 24 h in the hepatocyte culture media in the same conditions described above.
# On day 2, cells were washed twice with DPBS 1 X (Gibco) and maintained in amino acid-free WEM (US Biologicals) containing a defined custom amino acid concentration based on the mean physiological concentrations in blood. The values are published in the Human Metabolome Database (Wishart D S, Tzur D, Knox C, et al., HMDB: the Human Metabolome Database. Nucleic Acids Res. 2007 January; 35 (Database issue): D521-6. 17202168; which is hereby incorporated by reference in its entirety). This custom media is supplemented with 11 mM Glucose, 0.272 mM Sodium Pyruvate, and a dose curve of defined amino acid compositions (i.e., vehicle, LIVRQ+N-acetylcysteine, LIVRQ, RQ+N-acetylcysteine, N-acetylcysteine alone, LIV, or individually with L-Leucine, L-Isoleucine, L-Valine, L-Arginine, L-Glutamine, and L-Cysteine) at various ranges of concentrations. Cells were maintained in this defined media for 24 hours at 37° C., 5% CO2.
# Co-treatment with free fatty acids and different amino acids combination After pre-treatment, cells were exposed to free fatty acids (FFA) at 250 uM with a ratio of 2:1 (Oleate: Palmitate) supplemented with TNF-α (Thermofisher) at 1 ng/ml or vehicle. Cells were incubated with the FFAs mixture and the different amino acids combinations for 24 hours at 37° C., 5% CO2. After 24 hours incubation, media was removed for cytokine analysis and replaced by fresh media containing the same stimulus conditions and amino acid concentrations. Cells were incubated for an additional 48 hours for a total of 72 hours of FFA and TNFα stimulation.
# Human CCL2 (MCP-1) was measured by ELISA (Human […] DuoSet ELISA, R&D Systems) at ⅕ or 1/10 dilution in 1 X Reagent Diluent (Reagent Ancillary Kit 2, R&D Systems). Data were normalized to the specific per well cell density determined by nuclei count stained by Hoechst 3342 (Life technologies) in the fluorescence microscopy described below.
# MCP1 CCL2 Secretion Tables 56-59 show the baseline subtracted secretion of MCP1/CCL2 in primary human hepatocytes cells from two healthy donors (donor 1 for Tables 56 and 57, and donor 2 for Tables 58 and 59).
smiles,measurement,setting,value
"CC(C)[C@H](N)C(=O)O [Valine, L-Valine]","MCP1 expression relative to Control, Mean","Donor 1, Conc. 234 μM",−2.4E−15
same,"MCP1 expression relative to Control, Mean","Donor 1, Conc. 4684 μM",23.6867
same,"MCP1 expression relative to Control, Mean","Donor 1, Conc. 11710 μM",77.73
same,"MCP1 expression relative to Control, Mean","Donor 1, Conc. 23420 μM",14.17
same,"MCP1 expression relative to Control, Mean","Donor 2, Conc. 234 μM",−1.4E−14
same,"MCP1 expression relative to Control, Mean","Donor 2, Conc. 4684 μM",10.79
same,"MCP1 expression relative to Control, Mean","Donor 2, Conc. 11710 μM",38.25
same,"MCP1 expression relative to Control, Mean","Donor 2, Conc. 23420 μM",−30.7921
same,MCP1/CCL2 secretion,,did not have an effect
"CC[C@H](C)[C@H](N)C(=O)O [Isoleucine, L-Isoleucine]","MCP1 expression relative to Control, Mean","Donor 1, Conc. 66 μM",−1.2E−15
same,"MCP1 expression relative to Control, Mean","Donor 1, Conc. 1328 μM",−0.3073
same,"MCP1 expression relative to Control, Mean","Donor 1, Conc. 3320 μM",−2.417
same,"MCP1 expression relative to Control, Mean","Donor 1, Conc. 6639 μM",−0.205
same,"MCP1 expression relative to Control, Mean","Donor 2, Conc. 66 μM",0
same,"MCP1 expression relative to Control, Mean","Donor 2, Conc. 1328 μM",26.62
same,"MCP1 expression relative to Control, Mean","Donor 2, Conc. 3320 μM",−5.645
same,"MCP1 expression relative to Control, Mean","Donor 2, Conc. 6639 μM",18.62
same,MCP1/CCL2 secretion,,did not have an effect
"NC(=O)CC[C@H](N)C(=O)O [glutamine, L-Glutamine]","MCP1 expression relative to Control, Mean","Donor 1, Conc. 749 μM",0
same,"MCP1 expression relative to Control, Mean","Donor 1, Conc. 3747 μM",−0.8981
same,"MCP1 expression relative to Control, Mean","Donor 1, Conc. 11242 μM",−9.001
same,"MCP1 expression relative to Control, Mean","Donor 1, Conc. 22484 μM",−21.8392
same,"MCP1 expression relative to Control, Mean","Donor 2, Conc. 749 μM",2.84E−14
same,"MCP1 expression relative to Control, Mean","Donor 2, Conc. 3747 μM",−45.0574
same,"MCP1 expression relative to Control, Mean","Donor 2, Conc. 11242 μM",−90.6558
same,"MCP1 expression relative to Control, Mean","Donor 2, Conc. 22484 μM",−138.873
same,MCP1/CCL2 secretion,,significantly decrease
"N=C(N)NCCC[C@H](N)C(=O)O [arginine, L-Arginine]","MCP1 expression relative to Control, Mean","Donor 1, Conc. 109 μM",2.37E−15
same,"MCP1 expression relative to Control, Mean","Donor 1, Conc. 1088 μM",5.114
same,"MCP1 expression relative to Control, Mean","Donor 1, Conc. 2720 μM",6.527
same,"MCP1 expression relative to Control, Mean","Donor 1, Conc. 5440 μM",10.9386
same,"MCP1 expression relative to Control, Mean","Donor 2, Conc. 109 μM",−4.7E−15
same,"MCP1 expression relative to Control, Mean","Donor 2, Conc. 1088 μM",24.95
same,"MCP1 expression relative to Control, Mean","Donor 2, Conc. 2720 μM",24.06
same,"MCP1 expression relative to Control, Mean","Donor 2, Conc. 5440 μM",8.494
same,MCP1/CCL2 secretion,,increased
"CC(=O)N[C@@H](CS)C(=O)O [N-acetyl cysteine, N-acetylcysteine]","MCP1 expression relative to Control, Mean","Donor 1, Conc. 1000 μM",−0.7629
same,"MCP1 expression relative to Control, Mean","Donor 1, Conc. 2500 μM",−2.498
same,"MCP1 expression relative to Control, Mean","Donor 1, Conc. 5000 μM",−10.8919
same,"MCP1 expression relative to Control, Mean","Donor 1, Conc. 10000 μM",−17.6065
same,"MCP1 expression relative to Control, Mean","Donor 1, Conc. (X) 5",−0.7629
same,"MCP1 expression relative to Control, Mean","Donor 1, Conc. (X) 10",−2.498
same,"MCP1 expression relative to Control, Mean","Donor 1, Conc. (X) 20",−10.8919
same,"MCP1 expression relative to Control, Mean","Donor 1, Conc. (X) 40",−17.6065
same,"MCP1 expression relative to Control, Mean","Donor 2, Conc. 1000 μM",1.602
same,"MCP1 expression relative to Control, Mean","Donor 2, Conc. 2500 μM",−4.0591
same,"MCP1 expression relative to Control, Mean","Donor 2, Conc. 5000 μM",−10.5725
same,"MCP1 expression relative to Control, Mean","Donor 2, Conc. 10000 μM",−28.4419
same,"MCP1 expression relative to Control, Mean","Donor 2, Conc. (X) 1000",1.602
same,"MCP1 expression relative to Control, Mean","Donor 2, Conc. (X) 2500",−4.0591
same,"MCP1 expression relative to Control, Mean","Donor 2, Conc. (X) 5000",−10.5725
same,"MCP1 expression relative to Control, Mean","Donor 2, Conc. (X) 10000",−28.4419
same,MCP1/CCL2 secretion,,significantly decrease
"CC(C)C[C@H](N)C(=O)O [Leucine, L-Leucine]","MCP1 expression relative to Control, Mean","Donor 1, Conc. 153 μM",5.92E−16
same,"MCP1 expression relative to Control, Mean","Donor 1, Conc. 3054 μM",3.34
same,"MCP1 expression relative to Control, Mean","Donor 1, Conc. 7635 μM",1.896
same,"MCP1 expression relative to Control, Mean","Donor 1, Conc. 15270 μM",−1.368
same,"MCP1 expression relative to Control, Mean","Donor 2, Conc. 153 μM",−4.7E−15
same,"MCP1 expression relative to Control, Mean","Donor 2, Conc. 3054 μM",16.11
same,"MCP1 expression relative to Control, Mean","Donor 2, Conc. 7635 μM",−2.988
same,"MCP1 expression relative to Control, Mean","Donor 2, Conc. 15270 μM",−26.6436
same,MCP1/CCL2 secretion,,did not have an effect
